Results as given in PubChem BioAssay (NCI).
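Assay format: 96-well plates, 48-hour exposure. TGI: concentration producing complete growth inhibition.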

Experiments:
Assay in all cases: NCI tumour cell line growth inhibition, 48 h
A549 NSCLC = tested on: A549 NSCLC
SF-268 CNS = tested on: SF-268 CNS
SF-295 CNS = tested on: SF-295 CNS
HT29 colon = tested on: HT29 colon
LOX IMVI melanoma = tested on: LOX IMVI melanoma
T-47D breast = tested on: T-47D breast
NCI-H23 lung = tested on: NCI-H23 lung
COLO 205 colon = tested on: COLO 205 colon
HL-60(TB) leukemia = tested on: HL-60(TB) leukemia
DU-145 prostate = tested on: DU-145 prostate
OVCAR-3 ovarian = tested on: OVCAR-3 ovarian
UACC-62 melanoma = tested on: UACC-62 melanoma
SNB-75 CNS = tested on: SNB-75 CNS
U251 CNS = tested on: U251 CNS
OVCAR-4 ovarian = tested on: OVCAR-4 ovarian
SK-MEL-28 melanoma = tested on: SK-MEL-28 melanoma
SN12C renal = tested on: SN12C renal
KM12 colon = tested on: KM12 colon
NCI/ADR-RES ovarian = tested on: NCI/ADR-RES ovarian
IGROV1 ovarian = tested on: IGROV1 ovarian
SK-MEL-5 melanoma = tested on: SK-MEL-5 melanoma
HOP-92 NSCLC = tested on: HOP-92 NSCLC
TK-10 renal = tested on: TK-10 renal
MDA-MB-435 = tested on: MDA-MB-435
MOLT-4 leukemia = tested on: MOLT-4 leukemia
A498 renal = tested on: A498 renal
RXF 393 renal = tested on: RXF 393 renal
CAKI-1 renal = tested on: CAKI-1 renal
NCI-H522 lung = tested on: NCI-H522 lung
ACHN renal = tested on: ACHN renal
EKVX NSCLC = tested on: EKVX NSCLC
786-0 renal = tested on: 786-0 renal
UO-31 renal = tested on: UO-31 renal
HCC-2998 colon = tested on: HCC-2998 colon
SK-OV-3 ovarian = tested on: SK-OV-3 ovarian
SK-MEL-2 melanoma = tested on: SK-MEL-2 melanoma
MCF7 breast = tested on: MCF7 breast
OVCAR-8 ovarian = tested on: OVCAR-8 ovarian
MDA-MB-231 breast = tested on: MDA-MB-231 breast
HCT-15 colon = tested on: HCT-15 colon
OVCAR-5 ovarian = tested on: OVCAR-5 ovarian
SW-620 colon = tested on: SW-620 colon
MALME-3M melanoma = tested on: MALME-3M melanoma
M14 melanoma = tested on: M14 melanoma
HS 578T breast = tested on: HS 578T breast
HCT-116 colon = tested on: HCT-116 colon
NCI-H226 lung = tested on: NCI-H226 lung
MDA-N = tested on: MDA-N
NCI-H460 lung = tested on: NCI-H460 lung
BT-549 breast = tested on: BT-549 breast
HOP-62 NSCLC = tested on: HOP-62 NSCLC
SF-539 CNS = tested on: SF-539 CNS
CCRF-CEM leukemia = tested on: CCRF-CEM leukemia
UACC-257 melanoma = tested on: UACC-257 melanoma
SNB-19 CNS = tested on: SNB-19 CNS
PC-3 prostate = tested on: PC-3 prostate
K-562 leukemia = tested on: K-562 leukemia
SR leukemia = tested on: SR leukemia

## NCC(Cc1ccccc1)P(=O)(O)O (stereo not given)
A549 NSCLC
  TGI: > 100 µM
SF-268 CNS
  TGI: > 100 µM
SF-295 CNS
  TGI: > 100 µM
HT29 colon
  TGI: > 100 µM
LOX IMVI melanoma
  TGI: > 100 µM
T-47D breast
  TGI: > 100 µM
NCI-H23 lung
  TGI: > 100 µM
COLO 205 colon
  TGI: > 100 µM
HL-60(TB) leukemia
  TGI: > 100 µM
DU-145 prostate
  TGI: > 100 µM
OVCAR-3 ovarian
  TGI: > 100 µM
UACC-62 melanoma
  TGI: > 100 µM
SNB-75 CNS
  TGI: > 100 µM
U251 CNS
  TGI: > 100 µM
OVCAR-4 ovarian
  TGI: > 100 µM
SK-MEL-28 melanoma
  TGI: > 100 µM
SN12C renal
  TGI: > 100 µM
KM12 colon
  TGI: > 100 µM
NCI/ADR-RES ovarian
  TGI: > 100 µM
IGROV1 ovarian
  TGI: > 100 µM
SK-MEL-5 melanoma
  TGI: > 100 µM
HOP-92 NSCLC
  TGI: > 100 µM
TK-10 renal
  TGI: > 100 µM
MDA-MB-435
  TGI: > 100 µM
MOLT-4 leukemia
  TGI: > 100 µM
A498 renal
  TGI: > 100 µM
RXF 393 renal
  TGI: > 100 µM
CAKI-1 renal
  TGI: > 100 µM
NCI-H522 lung
  TGI: > 100 µM
ACHN renal
  TGI: > 100 µM
EKVX NSCLC
  TGI: > 100 µM
786-0 renal
  TGI: > 100 µM
UO-31 renal
  TGI: > 100 µM
HCC-2998 colon
  TGI: > 100 µM
SK-OV-3 ovarian
  TGI: > 100 µM
SK-MEL-2 melanoma
  TGI: > 100 µM
MCF7 breast
  TGI: > 100 µM
OVCAR-8 ovarian
  TGI: > 100 µM
MDA-MB-231 breast
  TGI: > 100 µM
HCT-15 colon
  TGI: > 100 µM
OVCAR-5 ovarian
  TGI: > 100 µM
SW-620 colon
  TGI: > 100 µM
MALME-3M melanoma
  TGI: > 100 µM
M14 melanoma
  TGI: > 100 µM
HS 578T breast
  TGI: > 100 µM
HCT-116 colon
  TGI: > 100 µM
NCI-H226 lung
  TGI: > 100 µM
MDA-N
  TGI: > 100 µM
NCI-H460 lung
  TGI: > 100 µM
BT-549 breast
  TGI: > 100 µM
HOP-62 NSCLC
  TGI: > 100 µM
SF-539 CNS
  TGI: > 100 µM
CCRF-CEM leukemia
  TGI: > 100 µM
UACC-257 melanoma
  TGI: > 100 µM
SNB-19 CNS
  TGI: > 100 µM
PC-3 prostate
  TGI: > 100 µM
K-562 leukemia
  TGI: > 100 µM

## CC1=CC(=O)c2c(O)c3c(c(O)c2C1=O)C1C(O)C(C3=O)C23C(=O)c4c(O)c(C)cc(O)c4C(O)=C2C(=O)CC(O)C13 (stereo not given)
A549 NSCLC
  TGI: 10.8 µM
SF-268 CNS
  TGI: 7.54 µM
SF-295 CNS
  TGI: 2.3 µM
HT29 colon
  TGI: 7.05 µM
LOX IMVI melanoma
  TGI: 4.7 µM
T-47D breast
  TGI: 5.75 µM
NCI-H23 lung
  TGI: 14.1 µM
COLO 205 colon
  TGI: 4.76 µM
HL-60(TB) leukemia
  TGI: > 100 µM
DU-145 prostate
  TGI: 3.61 µM
OVCAR-3 ovarian
  TGI: 7.75 µM
UACC-62 melanoma
  TGI: 3.24 µM
SNB-75 CNS
  TGI: 9.1 µM
U251 CNS
  TGI: 15.9 µM
OVCAR-4 ovarian
  TGI: 28 µM
SK-MEL-28 melanoma
  TGI: 6.78 µM
SN12C renal
  TGI: 5.55 µM
KM12 colon
  TGI: 2.5 µM
IGROV1 ovarian
  TGI: 6.58 µM
SK-MEL-5 melanoma
  TGI: 4 µM
TK-10 renal
  TGI: 11.6 µM
MDA-MB-435
  TGI: 2.81 µM
MOLT-4 leukemia
  TGI: 13 µM
A498 renal
  TGI: 3.37 µM
CAKI-1 renal
  TGI: 3.57 µM
ACHN renal
  TGI: 7.44 µM
EKVX NSCLC
  TGI: 8.21 µM
786-0 renal
  TGI: 5.69 µM
HCC-2998 colon
  TGI: 10.2 µM
SK-OV-3 ovarian
  TGI: 6.86 µM
SK-MEL-2 melanoma
  TGI: 3.79 µM
MCF7 breast
  TGI: 14.6 µM
OVCAR-8 ovarian
  TGI: 8.65 µM
MDA-MB-231 breast
  TGI: 9.89 µM
HCT-15 colon
  TGI: 6.91 µM
OVCAR-5 ovarian
  TGI: 9.08 µM
SW-620 colon
  TGI: 12.2 µM
MALME-3M melanoma
  TGI: 2.91 µM
M14 melanoma
  TGI: 10.5 µM
HS 578T breast
  TGI: 3.44 µM
HCT-116 colon
  TGI: 2.5 µM
NCI-H226 lung
  TGI: 6.56 µM
MDA-N
  TGI: 2.89 µM
NCI-H460 lung
  TGI: 5.23 µM
BT-549 breast
  TGI: 17.9 µM
HOP-62 NSCLC
  TGI: 6.21 µM
SF-539 CNS
  TGI: 5.07 µM
CCRF-CEM leukemia
  TGI: > 100 µM
SR leukemia
  TGI: 6.52 µM
UACC-257 melanoma
  TGI: 3.5 µM
SNB-19 CNS
  TGI: 20.2 µM
PC-3 prostate
  TGI: 10.2 µM
K-562 leukemia
  TGI: > 100 µM
